Source: ChEMBL document CHEMBL1151757, “Synthesis, radiosynthesis, and biological evaluation of fluorine-18-labeled 2beta-carbo(fluoroalkoxy)-3beta-(3'-((Z)-2-haloethenyl)phenyl)nortropanes: candidate radioligands for in vivo imaging of the serotonin transporter with positron emission tomography” (J Med Chem, 2008)

How the values were obtained:
[1] = Ratio of drug uptake in pons to cerebellum in anesthetized cynomolgus monkey after 195 mins postinjection; format: ADME, organism-based, Macaca fascicularis; details: in vivo, 3.25 h
[2] = Ratio of drug uptake in medulla to cerebellum in anesthetized cynomolgus monkey after 95 mins postinjection; format: ADME, organism-based, Macaca fascicularis; details: in vivo
[3] = Ratio of drug uptake in medulla to cerebellum in anesthetized cynomolgus monkey after 165 mins postinjection; format: ADME, organism-based, Macaca fascicularis; details: in vivo, 2.75 h
[4] = Drug uptake in anesthetized cynomolgus monkey brain occipital lobe after 65 mins postinjection; format: ADME, organism-based, Macaca fascicularis; details: in vivo
[5] = Drug uptake in anesthetized cynomolgus monkey brain occipital lobe after 125 mins postinjection; format: ADME, organism-based, Macaca fascicularis; details: in vivo
[6] = Drug uptake in anesthetized cynomolgus monkey brain occipital lobe after 155 mins postinjection; format: ADME, organism-based, Macaca fascicularis; details: in vivo
[7] = Drug uptake in anesthetized cynomolgus monkey brain frontal lobe after 225 mins postinjection; format: ADME, organism-based, Macaca fascicularis; details: in vivo, 3.75 h
[8] = Ratio of drug uptake in midbrain to cerebellum in anesthetized cynomolgus monkey after 225 mins postinjection; format: ADME, organism-based, Macaca fascicularis; details: in vivo, 3.75 h
[9] = tested on: Putamen; experiment: Drug uptake in anesthetized cynomolgus monkey brain putamen after 235 mins postinjection; format: ADME, organism-based, Macaca fascicularis; details: in vivo
[10] = tested on: Thalamus; experiment: Drug uptake in anesthetized cynomolgus monkey brain thalamus after 1.5 mins postinjection; format: ADME, organism-based, Macaca fascicularis; details: in vivo, 0.025 h
[11] = Ratio of drug uptake in frontal lobe to cerebellum in anesthetized cynomolgus monkey after 35 mins postinjection; format: ADME, organism-based, Macaca fascicularis; details: in vivo
[12] = tested on: Midbrain; experiment: Drug uptake in anesthetized cynomolgus monkey brain midbrain after 215 mins postinjection; format: ADME, organism-based, Macaca fascicularis; details: in vivo
[13] = tested on: Pons; experiment: Drug uptake in anesthetized cynomolgus monkey brain pons after 1.5 mins postinjection; format: ADME, organism-based, Macaca fascicularis; details: in vivo, 0.025 h
[14] = tested on: Pons; experiment: Drug uptake in anesthetized cynomolgus monkey brain pons after 18.5 mins postinjection; format: ADME, organism-based, Macaca fascicularis; details: in vivo
[15] = tested on: Pons; experiment: Drug uptake in anesthetized cynomolgus monkey brain pons after 45 mins postinjection; format: ADME, organism-based, Macaca fascicularis; details: in vivo, 0.75 h
[16] = tested on: Pons; experiment: Drug uptake in anesthetized cynomolgus monkey brain pons after 185 mins postinjection; format: ADME, organism-based, Macaca fascicularis; details: in vivo
[17] = tested on: Caudate; experiment: Drug uptake in anesthetized cynomolgus monkey brain caudate after 195 mins postinjection; format: ADME, organism-based, Macaca fascicularis, Caudate nucleus; details: in vivo, 3.25 h
[18] = Ratio of drug uptake in caudate to cerebellum in anesthetized cynomolgus monkey after 12.5 mins postinjection; format: ADME, organism-based, Macaca fascicularis; details: in vivo
[19] = Ratio of drug uptake in caudate to cerebellum in anesthetized cynomolgus monkey after 18.5 mins postinjection; format: ADME, organism-based, Macaca fascicularis; details: in vivo
[20] = tested on: Pons; experiment: Drug uptake in anesthetized cynomolgus monkey brain pons after 115 mins postinjection; format: ADME, organism-based, Macaca fascicularis; details: in vivo
[21] = tested on: Pons; experiment: Drug uptake in anesthetized cynomolgus monkey brain pons after 145 mins postinjection; format: ADME, organism-based, Macaca fascicularis; details: in vivo
[22] = tested on: Medulla; experiment: Drug uptake in anesthetized cynomolgus monkey brain medulla after 3.5 mins postinjection; format: ADME, organism-based, Macaca fascicularis; details: in vivo
[23] = tested on: Medulla; experiment: Drug uptake in anesthetized cynomolgus monkey brain medulla after 9.5 mins postinjection; format: ADME, organism-based, Macaca fascicularis; details: in vivo
[24] = tested on: Medulla; experiment: Drug uptake in anesthetized cynomolgus monkey brain medulla after 95 mins postinjection; format: ADME, organism-based, Macaca fascicularis; details: in vivo
[25] = tested on: Medulla; experiment: Drug uptake in anesthetized cynomolgus monkey brain medulla after 125 mins postinjection; format: ADME, organism-based, Macaca fascicularis; details: in vivo
[26] = Drug uptake in anesthetized cynomolgus monkey brain cerebellum after 12.5 mins postinjection; format: ADME, organism-based, Macaca fascicularis; details: in vivo
[27] = Drug uptake in anesthetized cynomolgus monkey brain cerebellum after 95 mins postinjection; format: ADME, organism-based, Macaca fascicularis; details: in vivo
[28] = Drug uptake in anesthetized cynomolgus monkey brain cerebellum after 215 mins postinjection; format: ADME, organism-based, Macaca fascicularis; details: in vivo
[29] = Drug uptake in anesthetized cynomolgus monkey brain occipital lobe after 0.5 mins postinjection; format: ADME, organism-based, Macaca fascicularis; details: in vivo
[30] = Ratio of drug uptake in thalamus to cerebellum in anesthetized cynomolgus monkey after 9.5 mins postinjection; format: ADME, organism-based, Macaca fascicularis; details: in vivo
[31] = tested on: Caudate; experiment: Drug uptake in anesthetized cynomolgus monkey brain caudate after 2.5 mins postinjection; format: ADME, organism-based, Macaca fascicularis, Caudate nucleus; details: in vivo
[32] = tested on: Caudate; experiment: Drug uptake in anesthetized cynomolgus monkey brain caudate after 9.5 mins postinjection; format: ADME, organism-based, Macaca fascicularis, Caudate nucleus; details: in vivo
[33] = tested on: Caudate; experiment: Drug uptake in anesthetized cynomolgus monkey brain caudate after 55 mins postinjection; format: ADME, organism-based, Macaca fascicularis, Caudate nucleus; details: in vivo
[34] = tested on: Putamen; experiment: Drug uptake in anesthetized cynomolgus monkey brain putamen after 0.5 mins postinjection; format: ADME, organism-based, Macaca fascicularis; details: in vivo
[35] = tested on: Putamen; experiment: Drug uptake in anesthetized cynomolgus monkey brain putamen after 3.5 mins postinjection; format: ADME, organism-based, Macaca fascicularis; details: in vivo
[36] = Ratio of drug uptake in occipital lobe to cerebellum in anesthetized cynomolgus monkey after 12.5 mins postinjection; format: ADME, organism-based, Macaca fascicularis; details: in vivo
[37] = tested on: Thalamus; experiment: Drug uptake in anesthetized cynomolgus monkey brain thalamus after 3.5 mins postinjection; format: ADME, organism-based, Macaca fascicularis; parameters: unit not given here; details: in vivo
[38] = tested on: Thalamus; experiment: Drug uptake in anesthetized cynomolgus monkey brain thalamus after 6.5 mins postinjection; format: ADME, organism-based, Macaca fascicularis; parameters: unit not given here; details: in vivo
[39] = tested on: Thalamus; experiment: Drug uptake in anesthetized cynomolgus monkey brain thalamus after 45 mins postinjection; format: ADME, organism-based, Macaca fascicularis; parameters: unit not given here; details: in vivo, 0.75 h
[40] = tested on: Putamen; experiment: Drug uptake in anesthetized cynomolgus monkey brain putamen after 15.5 mins postinjection; format: ADME, organism-based, Macaca fascicularis; parameters: unit not given here; details: in vivo
[41] = tested on: Putamen; experiment: Drug uptake in anesthetized cynomolgus monkey brain putamen after 22.5 mins postinjection; format: ADME, organism-based, Macaca fascicularis; parameters: unit not given here; details: in vivo, 0.375 h
[42] = tested on: Putamen; experiment: Drug uptake in anesthetized cynomolgus monkey brain putamen after 55 mins postinjection; format: ADME, organism-based, Macaca fascicularis; parameters: unit not given here; details: in vivo
[43] = tested on: Putamen; experiment: Drug uptake in anesthetized cynomolgus monkey brain putamen after 85 mins postinjection; format: ADME, organism-based, Macaca fascicularis; parameters: unit not given here; details: in vivo
[44] = tested on: Thalamus; experiment: Drug uptake in anesthetized cynomolgus monkey brain thalamus after 55 mins postinjection; format: ADME, organism-based, Macaca fascicularis; parameters: unit not given here; details: in vivo
[45] = tested on: Thalamus; experiment: Drug uptake in anesthetized cynomolgus monkey brain thalamus after 65 mins postinjection; format: ADME, organism-based, Macaca fascicularis; parameters: unit not given here; details: in vivo
[46] = tested on: Thalamus; experiment: Drug uptake in anesthetized cynomolgus monkey brain thalamus after 115 mins postinjection; format: ADME, organism-based, Macaca fascicularis; parameters: unit not given here; details: in vivo
[47] = tested on: Midbrain; experiment: Drug uptake in anesthetized cynomolgus monkey brain midbrain after 4.5 mins postinjection; format: ADME, organism-based, Macaca fascicularis; parameters: unit not given here; details: in vivo, 0.075 h
[48] = tested on: Midbrain; experiment: Drug uptake in anesthetized cynomolgus monkey brain midbrain after 55 mins postinjection; format: ADME, organism-based, Macaca fascicularis; parameters: unit not given here; details: in vivo
[49] = tested on: Midbrain; experiment: Drug uptake in anesthetized cynomolgus monkey brain midbrain after 105 mins postinjection; format: ADME, organism-based, Macaca fascicularis; parameters: unit not given here; details: in vivo, 1.75 h
[50] = Ratio of drug uptake in midbrain to cerebellum in anesthetized cynomolgus monkey after 2.5 mins postinjection; format: ADME, organism-based, Macaca fascicularis; details: in vivo

Compound `O=C(OCC[18F])C1C2CCC(CC1c1ccc(/C=C\I)cc1)N2` (stereo not given) has a Ratio [1] of 2.6, a Ratio [2] of 1.8 and a Ratio [3] of 2.6. The Drug uptake [4] was 2.38, the Drug uptake [5] was 2.24 and the Drug uptake [6] was 2.02. For the same compound, the Drug uptake [7] was 1.56, the Ratio [8] was 4.2 and the Drug uptake [9] was 3.83. It also gave a Drug uptake [10] of 0.11, a Ratio [11] of 0.7 and a Drug uptake [12] of 4.63. The Drug uptake [13] was 0.06, the Drug uptake [14] was 2.17 and the Drug uptake [15] was 3.09. It also gave a Drug uptake [16] of 3.44, a Drug uptake [17] of 2.85 and a Ratio [18] of 0.8. The Ratio [19] was 0.7, the Drug uptake [20] was 3.65 and the Drug uptake [21] was 3.51. It also gave a Drug uptake [22] of 0.94, a Drug uptake [23] of 2.45 and a Drug uptake [24] of 3.88. The Drug uptake [25] was 3.81, the Drug uptake [26] was 2.13 and the Drug uptake [27] was 2.14. It also gave a Drug uptake [28] of 1.18, a Drug uptake [29] of 0 and a Ratio [30] of 1. It also gave a Drug uptake [31] of 0.29, a Drug uptake [32] of 1.47 and a Drug uptake [33] of 2.73. The Drug uptake [34] was 0, the Drug uptake [35] was 0.82 and the Ratio [36] was 0.8. It also gave a Drug uptake [37] of 0.76, a Drug uptake [38] of 1.7 and a Drug uptake [39] of 3.63. It also gave a Drug uptake [40] of 2.71, a Drug uptake [41] of 3.13 and a Drug uptake [42] of 4.02. For the same compound, the Drug uptake [43] was 4.32, the Drug uptake [44] was 3.78 and the Drug uptake [45] was 3.92. For the same compound, the Drug uptake [46] was 4.06, the Drug uptake [47] was 1.23 and the Drug uptake [48] was 4.01. The Drug uptake [49] was 4.55 and the Ratio [50] was 0.9.
